Source: patent US6489302B1, “Saccharide conjugates” (Deutches Krebsforschungszentrum Stiftung Des Offentlichen …, priority 1995, dated 2002)

Experiments:
[1] = test system: Dunning prostate tumor tissue; assay: Whole-body autoradiography of the 14C-labeled conjugate in tumor-bearing Copenhagen rats; assay type: in vivo, rat; details: Copenhagen rats with transplanted Dunning prostate tumor, 315 mg/kg i.v.
From the text: (§1) This conjugate was labeled with ^14C according to common methods and used for the following treatment of rats.
(§2) The rats used were female Sprague-Dawley rats (SD rats; obtainable from Charles River Wiga, Sulzfeld, Germany) and male Copenhagen rats (obtainable from Harlan Sprague Dawley, Ind., U.S.A.).
Fresh pieces (2×2 mm) of Dunning prostate tumor tissue were transplanted into the Copenhagen rats. The tumors were allowed to grow for about one week until they were well palpable but not yet necrotic.
(§3) Groups of 5 healthy SD rats were given i.v. injections of 315 mg/kg β-D-Glc-IMP and 56.2 mg/kg of β-D-Glc-IMP, respectively. 5 of the tumor-bearing Copenhagen rats were given 315 mg/kg of β-D-Glc-IMP. The radioactive dose per injection was about 20 μCi. One animal of every group was killed with CO2 10 minutes, 1 hours, 2 hours, 8 hours and 24 hours, respectively, after the administration of the injection. The tissues of the rats were prepared for a common microtome preparation and the sections were subjected to autoradiography as described by Ullberg, S., (1977), in: Alvefeldt, O. (ed.) Special issue on whole-body autoradiography. Science Tools, Bromma, Sweden, p. 2).

[2] = Whole-body autoradiography of the 14C-labeled conjugate in rats after i.v. injection (organ distribution); assay type: in vivo, rat
Method: as §1, §2, §3

[3] = test system: tumor; assay: Applicant's finding: anti-tumor properties
[4] = Applicant's finding: side-effects; details: as compared to cyclophosphoramide and isophosphoramide

O=P(NCCCl)(NCCCl)OC1OC(CO)C(O)C(O)C1O [β-D-Glc-IMP, β-D-Glucosylisophosphoramide]
accumulation in tumor tissue [1]: strong accumulation
accumulation in organs, particularly the liver, kidneys, thymus and thyroid gland ([2]; 10 minutes after i.v. injection, 315 mg/kg or 56.2 mg/kg): accumulated in organs
presence in central nervous system, including the brain ([2]; 8 hours after i.v. injection): contained the conjugate
anti-tumor properties [3]: good anti-tumor properties
side-effects [4]: extremely low side-effects
